What was measured:
Assay type in all cases: in vivo, Male, CF-1 male mice
[1] = Maximal Electroshock Seizure (MES) Model in mice, Initial Tests; conditions: Mus musculus, ip, MES 50 mA, 60 Hz, 0.2 sec, i.p., 2 hours after injection, 10 mice per dose, read-out: ED50 (effective dose to protect 50% of mice)
Experimental: The composition was tested using the Maximal Electroshock Seizure (MES) Model. This is an established procedure to provide an indication of a compound's ability to prevent seizure spread.
(§1) Subjects Male, CF-1 male mice (18-25 grams) were used as subjects. They were housed under standard conditions in the vivarium at the CCBR. They were given 2 days (minimum) to acclimate before testing began.
(§2) Drugs and Doses CBD was provided in pure form and in the described composition. Two four-point dose-response curves were done, one for the pure form CBD and one for the described composition. Ten mice were tested at each dose. (Mice were not re-used.) Compounds were injected intraperitoneally. Testing was done 2 hours after injection. Drugs were injected at a constant volume, and were diluted as necessary using a vehicle of 1:1:18 (Cremophor:alcohol:saline). Dilution is necessary to achieve volumes large enough for injection. Doses were: 0 (vehicle), 25, 50, 100, 200 mg/kg. A 400 mg/kg dose was added later to extend the standard CBD curve.
MES Procedure The MES stimulus consisted of 0.2 sec of 60 Hz since-wave current administered at an intensity of 50 mA via corneal electrodes. The percentage of mice protected against the tonic hindlimb extension component of the resulting seizure was measured. Mice were then euthanized following the procedure.

[2] = Toxicity Assessment: ataxia, Loscher scale, Initial Tests; conditions: just before the MES test, i.p., standard CBD at any dose
Experimental: as §1, §2
Toxicity Assessment Ataxia (impaired movement) was assessed using the Loscher scale and was done just before the MES test.

[3] = MES test in mice, Further Tests; conditions: Mus musculus, ip, MES 50 mA, 60 Hz, 0.2 sec, i.p., 2 hours after injection, Litchfield and Wilcoxon method, read-out: ED50 (effective dose to protect 50% of mice)
Source text: (§3) Subjects Male, CF-1 male mice (18-25 grams) were used as subjects. They were housed under standard conditions in a vivarium at the University of Toronto (CCBR). They were given 2 days (minimum) to acclimate before testing began.
(§4) Drugs and Doses CBD was provided in the form of: 1) standard CBD isolate, 2) CBD in DHA/EPA without emulsification (2% DHA, 2% EPA, 12% “stabilizer”), 3) CBD emulsified in DHA/EPA to produce larger particles (66.2 nm diameter) and 4) CBD emulsified in DHA/EPA to produce smaller particles (32.7 nm diameter). Drugs were injected intraperitoneally at a constant volume, and were diluted as necessary using a vehicle of 1:1:18 (Cremophor:alcohol:saline). Dilution is necessary to achieve volumes large enough for injection. Doses of CBD ranged from 0 (vehicle) to 400 mg/kg. As in our past studies, the MES stimulus was given 2 hours after injection. Dose-response curves were done for each formulation.
MES Procedure The MES stimulus consisted of 0.2 sec of 60 Hz since-wave current administered at an intensity of 50 mA via corneal electrodes. The percentage of mice protected against the tonic hindlimb extension component of the resulting seizure was measured. […]
(§5) Toxicity Assessment Ataxia (impaired movement) was assessed using the Loscher scale and was done just before the MES test. Loscher scores of 2-5 were scored a “toxicity present”. […]

[4] = Toxicity Assessment: ataxia, Loscher scale, Further Tests
Source text: as §3, §4, §5
The Litchfield/Wilcoxon method could not be applied to the toxicity data for technical reasons, so TD50s were calculated from line plots.

Structure (SMILES): C=C(C)[C@@H]1CCC(C)=C[C@H]1c1c(O)cc(CCCCC)cc1O [regular CBD, cannabidiol]
- ED50 [1]: 162 mg/kg
- signs of toxicity [2]: No mice showed any signs of toxicity
- ED50 [3]: 146 mg/kg
- TD25 ([4]; Loscher scores of 2-5 = toxicity present, i.p., highest dose tested): 400 mg/kg
- TD50 at 2 h ([4]; mouse, in vivo, ip, speculated to be higher than the highest dose tested): > 400 mg/kg

From patent US20260315497A1, “COMPOSITION FOR TREATING EPILEPSY” (CanaQuest Medical Corp., priority 2022, published 2026)
